From patent US7084239B1, “Cancer peptides of NY-ESO-1/CAG-3” (The United States of America as represented by the …, priority 1997, dated 2006) come the findings set out here.

Assay [1] concerns CTL clone 2. Nature of the assay: Chromium release cytolysis of peptide-pulsed target cells by CTL clone 2. The settings on record: peptide titration, 4-h chromium release, E:T ratio of 20:1 (FIG. 7B). It is filed as cell-based, human. The source says:
FIGS. 7A–7C. An alternative open reading frame of the NY-ESO-1 gene and antigenic peptides recognized by CTL. FIG. 7A. Identification of antigenic peptides from the ORF2. Thirty peptides were synthesized based on all potential ORFs and screened. Representative data are shown here. Seven peptides derived from ORF2 (see FIG. 3A) were pulsed on HLA-A31 positive 1510EBV B cells and tested for T cell recognition based on GM-CSF release ([…], SEQ ID NO: 123; […], SEQ ID NO: 124; […], SEQ ID NO: 125; […], SEQ ID NO: 46; […], SEQ ID NO: 47; […], SEQ ID NO: 126; and […], SEQ ID NO: 127). 1510 EBV alone was used as a negative control. FIG. 7B. 1510EBV B cells were labeled with chromium for 2 h. The ESORF2-10-18 peptide was then pulsed on the chromium-labeled […] (solid square) and HLA-A31-negative 1102EBV (open circle) at different concentrations. 1510EBV pulsed with ESO10-53, which was recognized by CTL clone 5, was used for the specificity control (solid triangle). After peptide incubation and three washes, cytolysis of target cells by CTL-clone 2 was determined in a 4-h chromium release assay at an E:T ratio of 20:1. FIG. 7C. Several tumor lines and fresh breast tumors were tested for recognition by CTL clone 2 to determine whether the ORF2 is translated in different tumors. 1510EBV B cells pulsed with […] (SEQ ID NO: 25) (ESO10-53), […] (SEQ ID NO: 47) (ORF2-10-18), or alone were included to evaluate the reactivity and specificity of CTL clone 2 and 5. […]
Cytolytic assay was done as previously described (Kawakami, Y et al., 1994, Proc. Natl. Acad. Sci. USA 91:6458–62). […] The cells were washed again, counted, and then mixed with TIL586 or CTL clone 5 at the indicated ratio of effector: targets (E:T). Chromium release was measured after 4 h incubation. […] Percentage of specific lysis was determined from the equation (A−B)/(C−B)×100 where A is lysis of 586EBV B cells by TIL586 or clone 5 in the presence of a peptide, B is spontaneous release from 586EBV B cells in presence of the same peptide but in the absence of effector cells, and C is the maximum chromium release. […]

For assay [2], the system named is CTL clone 2. As to the kind of experiment: T cell recognition (GM-CSF release) of peptide-pulsed EBV B cells by CTL clone 2. Conditions: peptide pulsed onto 1510EBV or 586EBV B cells. The assay is classed as cell-based, human. The source says:
FIGS. 7A–7C. An alternative open reading frame of the NY-ESO-1 gene and antigenic peptides recognized by CTL. FIG. 7A. Identification of antigenic peptides from the ORF2. Thirty peptides were synthesized based on all potential ORFs and screened. Representative data are shown here. Seven peptides derived from ORF2 (see FIG. 3A) were pulsed on HLA-A31 positive 1510EBV B cells and tested for T cell recognition based on GM-CSF release ([…], SEQ ID NO: 123; […], SEQ ID NO: 124; […], SEQ ID NO: 125; […], SEQ ID NO: 46; […], SEQ ID NO: 47; […], SEQ ID NO: 126; and […], SEQ ID NO: 127). 1510 EBV alone was used as a negative control. FIG. 7B. 1510EBV B cells were labeled with chromium for 2 h. The ESORF2-10-18 peptide was then pulsed on the chromium-labeled […] (solid square) and HLA-A31-negative 1102EBV (open circle) at different concentrations. 1510EBV pulsed with ESO10-53, which was recognized by CTL clone 5, was used for the specificity control (solid triangle). After peptide incubation and three washes, cytolysis of target cells by CTL-clone 2 was determined in a 4-h chromium release assay at an E:T ratio of 20:1. FIG. 7C. Several tumor lines and fresh breast tumors were tested for recognition by CTL clone 2 to determine whether the ORF2 is translated in different tumors. 1510EBV B cells pulsed with […] (SEQ ID NO: 25) (ESO10-53), […] (SEQ ID NO: 47) (ORF2-10-18), or alone were included to evaluate the reactivity and specificity of CTL clone 2 and 5. Expression of HLA-A31 on the tumor cells is indicated.
DNA transfection and GM-CSF assay were done as previously described (Wang, R. F., P. F. Robbins, Y. Kawakami, X. Q. Kang, and S. A. Rosenberg, 1995, J. Exp. Med. 181:799–804). Briefly, […] of DNA carrying a different fragment and 50 ng of the HLA-A31 DNA were mixed with 2 μl of lipofectamine in 100 μl of serum-free DMEM for 15–45 min. The DNA/lipofectamine mixture was then added to the COS-7 (5×10^4) cells and incubated overnight. The following day, cells were washed twice with DMEM medium. TIL586, CTL clone 5 or CTL clone 10 were added at a concentration of 5×10^4 cells/well in AIM-V medium containing 120 IU/ml of IL-2. After 18–24 h incubation, 100 μl of supernatant was collected and GM-CSF was measured in a standard ELISA assay (R+D Systems, Minneapolis, Minn.). […]
CTL clone 5 and TIL1244 were used for the specificity controls. […] To test the hypothesis that CTL may recognize a peptide from a gene product translated from an alternative open reading frame of the same gene, synthetic peptides were made with HLA-A31 Binding motif on the basis of amino acid sequence predicted from the second open reading frames (ORF2) (FIG. 3A). […]

With “ASGPGGGAPR (listed as Homo sapiens) [ESO10-53]”, in assay [1], the “Lysis of peptide-pulsed 1510EBV by CTL clone 2” value is “failed to lyse”. The “Recognition by CTL clone 2, in words” value is “did not recognize” in assay [2] and “failed to recognize” in assay [2] (listed as ESO 10-53).
